Source: PMC8467647, “Identification of Small Molecule Inhibitors against Staphylococcus aureus Dihydroorotase via HTS” (International Journal of Molecular Sciences, 2021)
One block for each molecule: values may come before it.

Key:
[1] = target: T1, SaDHOase (Staphylococcus aureus, UniProt Q5HGN1); test: SPR direct binding, steady-state affinity KD determination; conditions: compound alone, immobilized SaDHOase, 25 °C, steady-state affinity fit
T1 construct: The full-length SaDHOase was expressed and purified following the cloning of the SaDHO gene; His-SUMO with HRV 3C protease site (N, cleaved yes); made in house; host or cells: E. coli BL21 (DE3)
T1 sequence (Q5HGN1 1-424): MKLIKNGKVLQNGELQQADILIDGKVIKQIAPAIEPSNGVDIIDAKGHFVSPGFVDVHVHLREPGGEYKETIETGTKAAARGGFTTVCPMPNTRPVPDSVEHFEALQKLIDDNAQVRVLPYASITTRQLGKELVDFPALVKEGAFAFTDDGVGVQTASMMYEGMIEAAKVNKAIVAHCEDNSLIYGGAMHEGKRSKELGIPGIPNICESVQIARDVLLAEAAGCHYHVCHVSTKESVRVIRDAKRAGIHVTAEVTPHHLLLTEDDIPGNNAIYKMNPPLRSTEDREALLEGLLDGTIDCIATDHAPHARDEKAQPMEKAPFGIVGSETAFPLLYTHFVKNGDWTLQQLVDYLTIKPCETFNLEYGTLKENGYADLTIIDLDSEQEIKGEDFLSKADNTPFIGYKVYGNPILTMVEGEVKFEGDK
Protocol: (§1) The KD was determined using the response units during the equilibration phase of each concentration of the compound. […] In order to determine the mechanism of action, competition SPR studies were done in the presence of high concentration of the substrate Ca-asp (KM = 110 µM) (Figure 3A). Dose-response curve of the tightest binder (5) is shown as an example (Figure 3C).
Purified histidine-tag cleaved DHOase was buffer exchanged to PBS (10 mM phosphate, pH 7.4, 2.7 mM KCl and 137 mM NaCl) for SPR. SPR was performed at 25 °C using a Biacore T200 instrument and a CM5 sensor chip (GE Healthcare). The flow channels were activated by a 1-ethyl-3-(3-dimethylaminopropyl) carbodiimide hydrochloride (EDC)/N-hydroxy succinimide (NHS) mixture. Flow channel 1 was left unmodified as a control. DHOase was diluted in 10 mM sodium acetate (pH 4.0) and immobilized to flow channels 2 and 3 at levels of 8596 RU and 8342 RU, respectively. Fragment solutions at 65 μM and 200 μM were applied to all three channels at a 30 μL/min flow rate. For KD determination, fragment solutions at increasing concentrations (0–400 μM at 2-fold dilution) were applied to all three channels at a 30 μL/min flow rate. The SPR binding buffer was PBS-P supplemented with 2% DMSO and 0.5 mM TCEP. All data was referenced with the blank channel RU values, and the sensorgrams were analyzed using Biacore T200 evaluation software v2.0.3. The response units at each concentration was measured during the equilibration phase for the steady-state affinity fittings.
(§2) For KD determination of analogs, DHOase was immobilized to flow channels 2, 3 and 4 at levels of 10,160 RU, 12,072 RU and 11,358 RU, respectively. 1 mM Ca-asp was additionally added to the binding buffer for a competition SPR. The sensorgrams were analyzed using BiaEvaluation software 2.0.3. All data was referenced to a blank channel RU signal prior to the fitting. The RU difference at each concentration was measured during the binding equilibration phase, and BiaEvaluation software v2.0.3 was used to fit the data to determine KD values. The RU values and corresponding concentrations were plotted using the single hyperbolic Function (1), where y is the response; ymax is the maximum response, and x is the compound concentration. (1) y=ymax·x/(KD+x)

[2] = target: T1, SaDHOase; test: Competition SPR in the presence of 1 mM substrate Ca-asp; format: binding
Protocol: as §1, §2

[3] = substrate: NC(=O)N[C@@H](CC(=O)O)C(=O)O; test: SaDHOase enzyme activity (substrate KM); format: biochemical, Staphylococcus aureus; conditions: other: substrate of SaDHOase
Protocol: The full-length SaDHOase was expressed and purified following the cloning of the SaDHO gene according to previously published methods. Purified SaDHOase enzyme activity was measured and confirmed by two methods, one by observing the production of Ca-asp (reverse reaction) at a UV-Vis absorption of 540 nm (TSC-DAMO method) and the other with continuously monitoring reduction of DHO at 230 nm (Figure 1A). Enzyme rates were calculated using the measured slopes, path length of 0.44 cm and the extinction coefficient (ε) of DHO at 230 nm, 1.17 mM^−1 cm^−1 [14].

Molecule: NC1C(=O)Nc2ccc(Br)cc21 (stereo not shown) [Compound 1]
Kd [1]: 205 µM | Weakening of binding affinity in the presence of 1 mM Ca-asp ([2]; KD with 1 mM Ca-asp vs compound alone): ~ 2.8 fold

Molecule: Cn1c(SCC#N)nc2ccccc2c1=O [Compound 2]
Kd [1]: 98 µM | Effect of substrate Ca-asp on binding (mode of binding) ([2]; competition SPR, 1 mM Ca-asp): not affected by Ca-asp presence

Molecule: Cc1ccccc1CN1CCCN(C)CC1 [Compound 3]
Kd [1]: 156 µM

Molecule: CCNC(=O)N1CCC(N)CC1 [Compound 4]
Kd [1]: 274 µM

Molecule: Cc1ccc(C)c(CN2CCC(O)CC2)c1 [Compound 8]
Kd [1]: 11 ± 5 µM

B1: SaDHOase (Staphylococcus aureus subsp. aureus COL) (protein)
chain: T1 sequence (Q5HGN1 1-424)
notes: The full-length SaDHOase was expressed and purified following the cloning of the SaDHO gene; His-SUMO with HRV 3C protease site (N, cleaved yes); made in house; host or cells: E. coli BL21 (DE3)
Km [3]: 110 µM

The next lines start with the values.

Kd [1]: 48 µM
Molecule: Cc1ccc(CN2CCC(O)CC2)cc1 [Compound 5]

Kd [1]: 90 ± 4 µM
Molecule: OC1CCN(Cc2cccc(Cl)c2Cl)CC1 [Compound 6]

Kd [1]: 41 ± 18 µM
Molecule: Cc1ccccc1CN1CCC(O)CC1 [Compound 7]

Kd [1]: 125 ± 20 µM
Molecule: CCc1ccc(CN2CCC(O)CC2)cc1 [Compound 9]

KD [1]: eliminates all bonding | Kd [1]: > 400 µM
Molecule: Cc1cccc(CN2CCC(O)CC2)c1 [Compound 10]

KD [1]: eliminates all bonding | Kd [1]: > 400 µM
Molecule: OC1CCN(Cc2cccc(C(F)(F)F)c2)CC1 [Compound 11]

Kd [1]: 48 ± 24 µM
Molecule: OC1CCN(Cc2ccc(C(F)(F)F)cc2)CC1 [Compound 12]

Kd [1]: 77 ± 15 µM
Molecule: Cc1ccc(CN2CCCC(O)C2)c(C)c1 (stereo not shown) [Compound 13]

Kd [1]: 38 ± 5 µM
Molecule: Cc1cccc(CN2CCCC(CO)C2)c1 (stereo not shown) [Compound 14]
